Data reported in BindingDB's records for doi:10.1021/jm100158v (University of California, 2010).

Test: Inhibition of Escherichia coli K12 ADCS by spectrophotometry

Ki: 770 µM
Compound: Cc1ccc(C(=O)N[C@@H](CCCCNC(=O)c2cccc(OCC(=O)O)c2)C(=O)N[C@@H](Cc2cccc(Cl)c2)C(N)=O)c([N+](=O)[O-])c1O [2-(3-((S)-6-((S)-1-amino-3-(3-chlorophenyl)-1-oxopropan-2-ylamino)-5-(3-hydroxy-4-methyl-2-nitrobenzamido)-6-oxohexylcarbamoyl)phenoxy)acetic acid]
